Experimental data published in US7435837B2, “Dihydrobenzofuranyl alkanamine derivatives and methods for using same” (Wyeth, priority 2003, dated 2008).
Several values for one entry are separate records, joined by “and”; a condition that tells them apart may be missing. Identical values can stand only once. Counter-ions that a name gives are not always drawn.

Row | melting point | Compound
1 | 177 to 180 °C (dec.) | CC(C)(C)c1cccc2c1OC(CN)C2 (racemic) (as salt: hydrochloride) [Example 24, (±)-1-(7-tert-butyl-2,3-dihydro-1-benzofuran-2-yl)methanamine]
2 | 240 to 247 °C (dec.) | NCC1Cc2cc(F)cc(-c3ccccc3F)c2O1 (racemic) (as salt: hydrochloride) [Example 107, (±)-1-[5-fluoro-7-(2-fluorophenyl)-2,3-dihydro-1-benzofuran-2-yl]methanamine]
3 | 213 to 215 °C | NCC1Cc2c(cccc2-c2ccccc2C(F)(F)F)O1 (racemic) (as salt: hydrochloride) [Example 122, (±)-1-{4-[2-(trifluoromethyl)phenyl]-2,3-dihydro-1-benzofuran-2-yl}methanamine]
4 | 225 to 226 °C | NCC1Cc2c(cccc2-c2ccccc2)O1 (single isomer, unassigned; (+)) (as salt: hydrobromid) [Example 2, (+)-1-(4-phenyl-2,3-dihydro-1-benzofuran-2-yl)methanamine]
5 | > 200 °C (dec.) | NCC1Cc2cccc(-c3ccccc3)c2O1 (racemic) (as salt: hydrochloride) [Example 36, (±)-1-(7-phenyl-2,3-dihydro-1-benzofuran-2-yl)methanamine]
6 | 231 to 234 °C | Cc1ccccc1-c1cccc2c1CC(CN)O2 (racemic) (as salt: hydrochloride) [Example 4, (±)-1-[4-(2-methylphenyl)-2,3-dihydro-1-benzofuran-2-yl]methanamine]
7 | 219 to 222 °C | NCC1Cc2cccc(-c3c(F)cccc3F)c2O1 (racemic) (as salt: hydrochloride) [Example 139, (±)-1-[7-(2,6-difluorophenyl)-2,3-dihydro-1-benzofuran-2-yl]methanamine]
8 | 218 to 221 °C | NCC1Cc2ccc(-c3ccccc3)cc2O1 (racemic) (as salt: hydrobromid) [Example 31, (±)-(6-phenyl-2,3-dihydro-1-benzofuran-2-yl)methanamine]
9 | 268 to 271 °C | Cc1cccc(-c2cc(Cl)cc3c2OC(CN)C3)c1 (racemic) (as salt: hydrochloride) [Example 88, (±)-1-[5-chloro-7-(3-methylphenyl)-2,3-dihydro-1-benzofuran-2-yl]methanamine]
10 | > 250 °C | Cc1cccc(C)c1-c1cccc2c1CC(CN)O2 (single isomer, unassigned; (+)) (as salt: hydrochloride) [Example 126, (+)-1-[4-(2,6-dimethylphenyl)-2,3-dihydro-1-benzofuran-2-yl]methanamine]
11 | 156 to 158 °C | COc1cccc(-c2cccc3c2OC(CN)C3)c1 (single isomer, unassigned; (+)) (as salt: hydrochloride) [Example 133, (+)-1-[7-(3-methoxyphenyl)-2,3-dihydro-1-benzofuran-2-yl]methanamine]
12 | 174 to 176 °C | COc1cc2c(c(C(C)(C)C)c1)OC(CN)C2 (racemic) (as salt: hydrochloride) [Example 13, (±)-(7-tert-butyl-5-methoxy-2,3-dihydro-1-benzofuran-2-yl)methylamine]
13 | 229 to 231 °C | NCC1Cc2cccc(-c3ccc(Cl)cc3)c2O1 (single isomer, unassigned; (+)) (as salt: hydrobromid) [Example 77, (+)-1-[7-(4-chlorophenyl)-2,3-dihydro-1-benzofuran-2-yl]methanamine]
14 | 295 to 298 °C (dec.) | CC1(CN)Cc2cc(Cl)cc(-c3ccsc3)c2O1 (racemic) (as salt: hydrochloride) [Example 113, (±)-(5-chloro-2-methyl-7-thien-3-yl-2,3-dihydro-1-benzofuran-2-yl)methylamine]
15 | 254 to 257 °C | NCC1Cc2c(F)ccc(-c3ccccc3)c2O1 (racemic) (as salt: hydrochloride) [Example 98, (±)-1-(4-fluoro-7-phenyl-2,3-dihydro-1-benzofuran-2-yl)methanamine]
16 | 186 to 188 °C | NCC1Cc2cccc(-c3ccccc3Cl)c2O1 (single isomer, unassigned; (-)) (as salt: hydrochloride) [Example 129, (−)-1-[7-(2-chlorophenyl)-2,3-dihydro-1-benzofuran-2-yl]methanamine]
17 | 234 to 236 °C | NCC1Cc2cccc(-c3ccsc3)c2O1 (single isomer, unassigned; (+)) (as salt: hydrobromid) [Example 45, (+)-1-(7-thien-3-yl-2,3-dihydro-1-benzofuran-2-yl)methanamine]
18 | 183 to 188 °C | NCC1Cc2cc(F)cc(-c3ccccc3C(F)(F)F)c2O1 (single isomer, unassigned; (-)) (as salt: hydrochloride) [Example 151, (−)-1-{5-fluoro-7-[2-(trifluoromethyl)phenyl]-2,3-dihydro-1-benzofuran-2-yl}methanamine]

Row | melting point | Compound
19 | 228 to 230 °C and 231 to 233 °C | NC[C@H]1Cc2cc(F)cc(-c3c(Cl)cccc3Cl)c2O1 (as salt: hydrochloride) [Example 550, (−)-{[7-(2,6-dichlorophenyl)-5-fluoro-2,3-dihydro-1-benzofuran-2-yl]methyl}amine]
20 | 177 to 179 °C | CC(C)(C)c1cccc2c1OC(CN)C2 (single isomer, unassigned; (+)) (as salt: hydrochloride) [Example 26, (+)-1-(7-tert-butyl-2,3-dihydro-1-benzofuran-2-yl)methanamine]
21 | > 250 °C | Cc1ccc(-c2cccc3c2OC(CN)C3)cc1 (single isomer, unassigned; (+)) (as salt: hydrobromid) [Example 71, (+)-1-[7-(4-methylphenyl)-2,3-dihydro-1-benzofuran-2-yl]methanamine]
22 | > 225 °C | NCC1Cc2cccc(-c3c(Cl)cc(Cl)cc3Cl)c2O1 (racemic) (as salt: hydrochloride) [Example 166, (±)-{[7-(2,4,6-trichlorophenyl)-2,3-dihydro-1-benzofuran-2-yl]methyl}amine]
23 | > 250 °C | COc1ccccc1-c1cccc2c1OC(CN)C2 (racemic) (as salt: hydrochloride) [Example 59, (±)-1-[7-(2-methoxyphenyl)-2,3-dihydro-1-benzofuran-2-yl]methanamine]
24 | > 224 °C | Cc1ccccc1-c1cc(F)c(F)c2c1OC(CN)C2 (racemic) (as salt: hydrochloride) [Example 110, (±)-1-[4,5-difluoro-7-(2-methylphenyl)-2,3-dihydro-1-benzofuran-2-yl]methanamine]
25 | 120 to 124 °C | NCC1Cc2cccc(-c3cccc4ccccc34)c2O1 (racemic) (as salt: hydrochloride) [Example 33, (±)-1-[7-(1-naphthyl)-2,3-dihydro-1-benzofuran-2-yl]methanamine]
26 | 180 to 184 °C | COc1ccccc1-c1cccc2c1OC(CN)C2 (single isomer, unassigned; (+)) (as salt: hydrochloride) [Example 128, (+)-1-[7-(2-methoxyphenyl)-2,3-dihydro-1-benzofuran-2-yl]methanamine]
27 | 187 to 189 °C | NCC1Cc2cccc(-c3cccc(Cl)c3)c2O1 (single isomer, unassigned; (+)) (as salt: hydrobromid) [Example 66, (+)-1-[7-(3-chlorophenyl)-2,3-dihydro-1-benzofuran-2-yl]methanamine]
28 | 203 to 206 °C | NCC1Cc2c(cccc2-c2ccccc2C(F)(F)F)O1 (single isomer, unassigned; (-)) (as salt: hydrochloride) [Example 123, (−)-1-{4-[2-(trifluoromethyl)phenyl]-2,3-dihydro-1-benzofuran-2-yl}methanamine]
29 | > 225 °C | Cc1cccc(-c2cccc3c2OC(CN)C3)c1C (racemic) (as salt: hydrochloride) [Example 154, (±)-1-[7-(2,3-dimethylphenyl)-2,3-dihydro-1-benzofuran-2-yl]methanamine]
30 | > 250 °C | NCC1Cc2cccc(-c3ccc(C(F)(F)F)cc3)c2O1 (racemic) (as salt: hydrochloride) [Example 82, (±)-1 {7-[4-(trifluoromethyl)phenyl]-2,3-dihydro-1-benzofuran-2-yl}methanamine]
31 | 193 to 197 °C | NCC1Cc2cc(F)cc(-c3ccccc3C(F)(F)F)c2O1 (single isomer, unassigned; (+)) (as salt: hydrochloride) [Example 152, (+)-1-{5-fluoro-7-[2-(trifluoromethyl)phenyl]-2,3-dihydro-1-benzofuran-2-yl}methanamine]
32 | 156 to 158 °C | CN(C)C[C@H]1Cc2cc(F)cc(-c3c(Cl)cccc3Cl)c2O1 (as salt: hydrochloride) [Example 547, (R)-[7-(2,6-dichloro-phenyl)-5-Fluoro-2,3-dihydro-benzofuran-2-ylmethyl]dimethylamine]
33 | 211 to 212 °C | Cc1ccccc1-c1cccc2c1OC(CN)C2 (single isomer, unassigned; (+)) (as salt: hydrochloride) [Example 48, (+)-1-[7-(2-methylphenyl)-2,3-dihydro-1-benzofuran-2-yl]methanamine]
34 | > 250 °C | NCC1Cc2cccc(-c3ccccc3Cl)c2O1 (racemic) (as salt: hydrochloride) [Example 60, (±)-1-[7-(2-chlorophenyl)-2,3-dihydro-1-benzofuran-2-yl]methanamine]
35 | 227 to 228 °C | NCC1Cc2cccc(-c3ccccc3F)c2O1 (single isomer, unassigned; (+)) (as salt: hydrochloride) [Example 51, (+)-1-[7-(2-fluorophenyl)-2,3-dihydro-1-benzofuran-2-yl]methanamine]
36 | 227 to 230 °C | Cc1ccccc1-c1cc(F)cc2c1OC(CN)C2 (single isomer, unassigned; (+)) (as salt: hydrochloride) [Example 105, (+)-1-[5-fluoro-7-(2-methylphenyl)-2,3-dihydro-1-benzofuran-2-yl]methanamine]
